Measured values reported in patent US20230331803A1, “CO-AGONISTS OF THE GLP-1 AND AMYLIN RECEPTORS” (priority 2020, published 2023).
Where two headings read alike, the source gives them in different places. Starred links: 1 amine or outer side, 2 acyl side, 3 side chain; linkers in the order of their positions; H or OH if unused. Positions of bridges follow the written chain, without caps; N, C: chain ends. Non-standard residues stand in square brackets, D forms with d. Groups on a side chain read outwards from the residue. *: point of attachment. Butyryl(4-SO2NHCO(CH2)16Tz) = O=C(CCCCCCCCCCCCCCCCc1nnn[nH]1)NS(=O)(=O)CCCC(=O)*; Hexadecanoyl(16-SO3H) = O=C(CCCCCCCCCCCCCCCS(=O)(=O)O)*; C20 diacid = O=C(O)CCCCCCCCCCCCCCCCCCC(=O)*; C18 diacid = O=C(O)CCCCCCCCCCCCCCCCC(=O)*; C16 diacid = O=C(O)CCCCCCCCCCCCCCC(=O)*; γGlu = O=C(O)[C@H](CCC(=O)[*:2])N[*:1]; X2 = O=C(CCCCCCCCCCCCCCCCc1nnn[nH]1)*; εLys = N[C@@H](CCCCN[*:1])C(=O)[*:2]; Trx = NC[C@H]1CC[C@H](C(=O)O)CC1; AEEA = NCCOCCOCC(=O)O; Aib = CC(C)(N)C(=O)O; Ahx = NCCCCCC(=O)O

Tests used:
human GLP-1 receptor = molecular target: T1, human GLP-1 receptor (Homo sapiens, UniProt P43220); assay: Human GLP-1 receptor in vitro potency assay (CRE-luciferase reporter, BHK cells); type: cell-based
T1 construct: expressed in transfected cells; host or cells: BHK (Baby Hamster Kidney) cells, clone BHK 467-12A KZ-10, stably transfected, with CRE-luciferase reporter
T1 sequence (P43220 24-463): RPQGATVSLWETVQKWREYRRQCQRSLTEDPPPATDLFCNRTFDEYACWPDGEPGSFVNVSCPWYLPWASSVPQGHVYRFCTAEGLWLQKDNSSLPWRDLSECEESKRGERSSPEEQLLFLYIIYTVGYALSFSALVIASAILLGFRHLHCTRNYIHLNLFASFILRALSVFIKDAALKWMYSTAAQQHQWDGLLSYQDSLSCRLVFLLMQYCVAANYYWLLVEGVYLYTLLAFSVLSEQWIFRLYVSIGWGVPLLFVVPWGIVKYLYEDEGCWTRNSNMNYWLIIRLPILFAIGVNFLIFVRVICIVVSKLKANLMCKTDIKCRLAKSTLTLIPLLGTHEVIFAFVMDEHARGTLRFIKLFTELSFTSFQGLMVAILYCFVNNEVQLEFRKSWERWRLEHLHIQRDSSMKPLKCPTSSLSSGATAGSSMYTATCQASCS
Description: It is thus possible to measure GLP-1 receptor activity using a CRE-luciferase reporter gene introduced into Baby Hamster Kidney (BHK) cells co-expressing the GLP-1 receptor.
(§1) Cells were aliquoted and stored at -180° C. until use.
Plates were sealed and incubated at room temperature with gentle shaking for 30 minutes while protected from light. Luminescence was detected on a luminescence plate reader e.g. a Synergy 2 (BioTek).

[1] = molecular target: T2, human amylin receptor (hAmyR3) (Homo sapiens, UniProt O60896+P30988); assay: Human amylin receptor in vitro potency assay (CRE-luciferase reporter, BHK cells); type: cell-based;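 further: BHK cells expressing human calcitonin receptor plus RAMP3 (amylin-3 receptor) with a CRE-luciferase reporter, agonist activity read as luminescence from cAMP-driven transcription, 7-point serial dilutions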
T2 construct: host or cells: BHK cells (Hollex-1 line: human calcitonin receptor (a) + CRE-Luc), further transfected with human RAMP3
T2 sequence (P30988 25-474): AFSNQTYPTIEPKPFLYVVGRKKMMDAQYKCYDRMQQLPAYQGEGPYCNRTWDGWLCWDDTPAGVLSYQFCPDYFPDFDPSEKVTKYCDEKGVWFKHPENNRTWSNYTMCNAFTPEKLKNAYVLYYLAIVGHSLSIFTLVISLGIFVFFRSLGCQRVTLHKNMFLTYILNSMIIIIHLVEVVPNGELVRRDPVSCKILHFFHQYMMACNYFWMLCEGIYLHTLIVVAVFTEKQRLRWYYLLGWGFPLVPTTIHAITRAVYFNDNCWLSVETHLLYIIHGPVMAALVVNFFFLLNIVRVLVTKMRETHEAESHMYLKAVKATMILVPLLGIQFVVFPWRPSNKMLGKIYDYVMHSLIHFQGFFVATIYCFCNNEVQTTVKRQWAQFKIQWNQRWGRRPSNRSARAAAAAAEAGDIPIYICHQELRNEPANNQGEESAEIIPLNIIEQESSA
T2 sequence (O60896 24-148): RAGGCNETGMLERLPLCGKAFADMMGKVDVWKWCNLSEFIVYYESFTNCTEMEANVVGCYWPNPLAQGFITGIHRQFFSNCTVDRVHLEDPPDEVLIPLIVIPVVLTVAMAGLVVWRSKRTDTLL
Excerpt: Activation of hAmyR3 leads to increased cellular concentrations of cAMP. Consequently, transcription is activated by promotors containing multiple copies of the cAMP response element (CRE). It is thus possible to measure hAmyR3 activity using a CRE-luciferase reporter gene introduced into Baby Hamster Kidney (BHK) cells co-expressing the hAmyR3.
The cell line was further transfected with human receptor modifying protein 3 (RAMP3) using standard methods. This turns the human calcitonin receptor into a human amylin-3(a) receptor.
as §1
The plate was incubated over night at 37° C. in 5% CO2. On the day of the assay, cells were washed three times in assay buffer. Serial dilutions (7-fold dilutions, 7 concentrations pr. compound and one well containing only assay buffer) of comparator compounds and GLP-1 receptor-amylin receptor co-agonists were performed in assay buffer often starting from approximately 10-100 nM in 96-well plates and 30 µL of each concentration added to the 384-well assay plate with cells. […] The assay plate was sealed, incubated at room temperature with gentle shaking for 5 minutes followed by 30 minutes incubation without shaking while protected from light. Luminescence was detected on a luminescence plate reader e.g. a Synergy 2 (BioTek).

[2] = Table 4a, BHK cells expressing human GLP-1R, CRE-Luc, 3 hours, read-out: Human GLP-1R potency [EC50 (pM)]
[3] = Table 4a, BHK hAmyR3/CRE-Luc cells, 3 hours, read-out: Human AmyR3 potency [EC50 (pM)]

Row | EC50 (human GLP-1 receptor; [2]) [pM] | EC50 [1, 3] [pM] | Substance | also measured
1 | 41.7 | 32.8 | H-H[Aib]EGTFTSDVSSYLEEQAAREFIAWLVRGK([AEEA-AEEA-γGlu-C16 diacid])GGGGGEASELSTAALGRLSAELHELATLK([AEEA-AEEA-γGlu-C16 diacid])RTETGSGSP-NH2 [Compound 0284] | –
2 | 19 | 78.9 | H-H[Aib]EGTFTSDVSSYLEEQAAREFIAWLVRGK([AEEA-AEEA-γGlu-C16 diacid])GGGGGEASELSTAALGRLSAELHELATLPRTETGK([AEEA-AEEA-γGlu-C16 diacid])GSP-NH2 [Compound 0285] | –
3 | 35.2 | 114 | H-H[Aib]EGTFTSDVSSYLEEQAAREFIAWLVRGK([AEEA-AEEA-γGlu-C16 diacid])GGGGGEASELSTAALGRLSAELHELK([AEEA-AEEA-γGlu-C16 diacid])TLPRTETGSGSP-NH2 [Compound 0281] | –
4 | 34.3 | 18 | H-H[Aib]EGTFTSDVSSYLEEQAAREFIAWLVRGK([AEEA-AEEA-γGlu-C16 diacid])GGGGGEASELSTAALGRLSAELHK([AEEA-AEEA-γGlu-C16 diacid])LATLPRTETGSGSP-NH2 [Compound 0280] | –
5 | 3 | 34.9 | H-H[Aib]EGTFTSDVSSYLEEQAAREFIAWLVRGK([AEEA-AEEA-γGlu-C18 diacid])GGEASELSTAALGRLSAELHELATLPRTETGSGSP-NH2 [Compound 0132] | –
6 | 11.9 | 16.5 | H-H[Aib]EGTFTSDVSSYLEEQAAREFIAWLVRGRGK(Butyryl(4-SO2NHCO(CH2)16Tz))GGGASELSTAALGRLSAELHELATLPRTETGSGSP-NH2 [Compound 0145] | –
7 | 14.7 | 9.8 | H-H[Aib]EGTFTSDVSSYLEEQAAREFIAWLVRGRK(Butyryl(4-SO2NHCO(CH2)16Tz))ELSTAALGRLSAELHELATLPRTETGSGSP-NH2 [Compound 0102] | –
8 | 3 | 14.6 | H-H[Aib]EGTFTSDVSSYLEEQAAREFIAWLVRGRK([AEEA-AEEA-AEEA-AEEA-γGlu-C18 diacid])GGGGEASELSTAALGRLSAELHELATLPRTETGSGSP-NH2 [Compound 0662] | –
9 | 3.2 | 12.6 | H-H[Aib]EGTFTSDVSSYLEEQAAREFIAWLVRGRK([AEEA-AEEA-AEEA-AEEA-γGlu-C20 diacid])GGGGEASELSTAALGRLSAELHELATLPRTETGSGSP-NH2 [Compound 0663] | –
10 | 2.8 | 14.4 | H-H[Aib]EGTFTSDVSSYLEEQAAREFIAWLVRGRK([AEEA-AEEA-AEEA-γGlu-C18 diacid])GGGGEASELSTAALGRLSAELHELATLPRTETGSGSP-NH2 [Compound 0661] | –
11 | 2.2 | 22.8 | H-H[Aib]EGTFTSDVSSYLEEQAAREFIAWLVRGRK([AEEA-AEEA-γGlu-C18 diacid])EASELSTAALGRLSAELHELATLPRTETGSGSP-NH2 [Compound 0115] | –
12 | 1 | 17.5 | H-H[Aib]EGTFTSDVSSYLEEQAAREFIAWLVRGRK([AEEA-AEEA-γGlu-C18 diacid])GGEASELSTAALGRLSAELHELATLPRTETGSGSP-NH2 [Compound 0114] | –
13 | – | – | H-H[Aib]EGTFTSDVSSYLEEQAAREFIAWLVRGRK([AEEA-AEEA-γGlu-C18 diacid])GGGGEKCNTATCATQRLANFLVHSSNNFGPILPPTNVGSNTY-NH2 (disulfide 38-43 (inferred)) [Comparator compound 0671, reference compound] | EC50 (human GLP-1 receptor): 4.5 pM; Ability to agonise the GLP-1 receptor, in words (human GLP-1 receptor; Tables 4a-4c): retained their potencies on the GLP-1 receptor; EC50 [1]: 230 pM; Ability to agonise the amylin receptor, in words ([1]; Tables 4a-4c): impaired potency on the amylin receptor
14 | 1.9 | 14.1 | H-H[Aib]EGTFTSDVSSYLEEQAAREFIAWLVRGRK([AEEA-AEEA-γGlu-C18 diacid])GGGGSGGGEASELSTAALGRLSAELHELATLPRTETGSGSP-NH2 [Compound 0637] | –
15 | 4.6 | 6.9 | H-H[Aib]EGTFTSDVSSYLEEQAAREFIAWLVRGRK([AEEA-AEEA-γGlu-C20 diacid])GGGGSGGGEASELSTAALGRLSAELHELATLPRTETGSGSP-NH2 [Compound 0638] | –
16 | 2.9 | 11.3 | H-H[Aib]EGTFTSDVSSYLEEQAAREFIAWLVRGRK([AEEA-AEEA-γGlu-Hexadecanoyl(16-SO3H)])GGGGEASELSTAALGRLSAELHELATLPRTETGSGSP-NH2 [Compound 0654] | –
17 | 3 | 11.4 | H-H[Aib]EGTFTSDVSSYLEEQAAREFIAWLVRGRK([AEEA-AEEA-γGlu-X2])GGGGEASELSTAALGRLSAELHELATLPRTETGSGSP-NH2 [Compound 0655] | –
18 | 3.9 | 12.7 | H-H[Aib]EGTFTSDVSSYLEEQAAREFIAWLVRGRK([AEEA-γGlu-C18 diacid])GGGGEASELSTAALGRLSAELHELATLPRTETGSGSP-NH2 [Compound 0660] | –
19 | 3.1 | 11 | H-H[Aib]EGTFTSDVSSYLEEQAAREFIAWLVRGRK([Ahx-Ahx-γGlu-C18 diacid])GGGGEASELSTAALGRLSAELHELATLPRTETGSGSP-NH2 [Compound 0658] | –

Row | EC50 (human GLP-1 receptor; [2]) [pM] | EC50 [1, 3] [pM] | Substance | also measured
20 | 4.7 | 11.5 | H-H[Aib]EGTFTSDVSSYLEEQAAREFIAWLVRGRK([Ahx-Ahx-γGlu-C20 diacid])GGGGEASELSTAALGRLSAELHELATLPRTETGSGSP-NH2 [Compound 0659] | –
21 | 43.3 | 13.2 | H-H[Aib]EGTFTSDVSSYLEEQAAREFIAWLVRGRK([γGlu-C20 diacid])EASELSTAALGRLSAELHELATLPRTETGSGSP-NH2 [Compound 0141] | –
22 | 4.1 | 13.3 | H-H[Aib]EGTFTSDVSSYLEEQAAREFIAWLVRGRK([εLys-εLys-γGlu-C18 diacid])GGGGEASELSTAALGRLSAELHELATLPRTETGSGSP-NH2 [Compound 0656] | –
23 | 9.9 | 10.4 | H-H[Aib]EGTFTSDVSSYLEEQAAREFIAWLVRGRK([εLys-εLys-γGlu-C20 diacid])GGGGEASELSTAALGRLSAELHELATLPRTETGSGSP-NH2 [Compound 0657] | –
24 | 30.2 | 46 | H-H[Aib]EGTFTSDVSSYLEEQAAREFIAWLVRK([AEEA-AEEA-γGlu-C16 diacid])RGGGGGASELSTAALGRLSK([AEEA-AEEA-γGlu-C16 diacid])ELHELATLPRTETGSGSP-NH2 [Compound 0297] | –
25 | 36.8 | 33.7 | H-H[Aib]EGTFTSDVSSYLEEQAAREFIEWLVRGK(Butyryl(4-SO2NHCO(CH2)16Tz))ASELSTAALGRLSAELHELATLPRTETGSGSP-NH2 [Compound 0147] | –
26 | 25.7 | 14 | H-H[Aib]EGTFTSDVSSYLEEQAAREFIEWLVRGK(Butyryl(4-SO2NHCO(CH2)16Tz))GGGASELSTAALGRLSAELHELATLPRTETGSGSP-NH2 [Compound 0146] | –
27 | 8.8 | 35.9 | H-H[Aib]EGTFTSDVSSYLEEQAAREFIEWLVRGRK([AEEA-AEEA-γGlu-Trx-C20 diacid])EAEAEASELSTAALGRLSAELHELATLPRTETGSGSP-NH2 [Compound 0179] | –
28 | 11.8 | 27.5 | H-H[Aib]EGTFTSDVSSYLEEQAAREFIEWLVRGRK([εLys-AEEA-AEEA-γGlu-Trx-C20 diacid])EASELSTAALGRLSAELHELATLPRTETGSGSP-NH2 [Compound 0438] | –
29 | 8 | 12.2 | H-H[Aib]EGTFTSDVSSYLEEQAARK(Butyryl(4-SO2NHCO(CH2)16Tz))FIAWLVRGRGEASELSTAALGRLSAELHELATLPRTETGSGSP-NH2 [Compound 0125] | –
30 | 2.1 | 25.7 | H-H[Aib]EGTFTSDVSSYLEEQAARK([AEEA-AEEA-γGlu-C16 diacid])FIAWLVK([AEEA-AEEA-γGlu-C16 diacid])GRGGGEASELSTAALGRLSAELHELATLPRTETGSGSP-NH2 [Compound 0077] | –
31 | 4 | 29.9 | H-H[Aib]EGTFTSDVSSYLEEQAARK([AEEA-AEEA-γGlu-C16 diacid])FIAWLVRGRGGGGGASELSTAALGRLSK([AEEA-AEEA-γGlu-C16 diacid])ELHELATLPRTETGSGSP-NH2 [Compound 0296] | –
32 | 7.1 | 29.9 | H-H[Aib]EGTFTSDVSSYLEEQAARK([AEEA-AEEA-γGlu-C16 diacid])FIAWLVRGRGGGGGEASELSTAALGRLSAELHK([AEEA-AEEA-γGlu-C16 diacid])LATLPRTETGSGSP-NH2 [Compound 0509] | –
33 | 3.9 | 78.3 | H-H[Aib]EGTFTSDVSSYLEEQAARK([AEEA-AEEA-γGlu-C16 diacid])FIEWLVRGK([AEEA-AEEA-γGlu-C16 diacid])GEGGEASELSTAALGRLSAELHELATLPRTETGSGSP-NH2 [Compound 0086] | –
34 | 1.5 | 4.6 | H-H[Aib]EGTFTSDVSSYLEEQAARK([AEEA-AEEA-γGlu-C18 diacid])FIAWLVRGRGGGGGEASELSTAALGRLSAELHELATLPRTETGSGSP-NH2 [Compound 0639] | –
35 | 5.7 | 65.5 | H-H[Aib]EGTFTSDVSSYLEEQAARK([AEEA-AEEA-γGlu-C18 diacid])FIEWLVRGK([AEEA-AEEA-γGlu-C18 diacid])GEGGEASELSTAALGRLSAELHELATLPRTETGSGSP-NH2 [Compound 0089] | –
36 | 9.7 | 110 | H-H[Aib]EGTFTSDVSSYLEEQAARK([AEEA-AEEA-γGlu-C18 diacid])FIEWLVRGK([AEEA-AEEA-γGlu-C18 diacid])GGEASELSTAALGRLSAELHELATLPRTETGSGSP-NH2 [Compound 0128] | –
37 | 1.2 | 23.5 | H-H[Aib]EGTFTSDVSSYLEEQAARK([AEEA-AEEA-γGlu-C18 diacid])FIEWLVRGRK([AEEA-AEEA-γGlu-C18 diacid])GGEASELSTAALGRLSAELHELATLPRTETGSGSP-NH2 [Compound 0129] | –
38 | 19.3 | 4.1 | H-H[Aib]EGTFTSDVSSYLEEQAARK([AEEA-AEEA-γGlu-C20 diacid])FIAWLVRGRGGGGGEASELSTAALGRLSAELHELATLPRTETGSGSP-NH2 [Compound 0562] | –
